According to PubChem BioAssay (NCI):
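Cultured in 96-well plates, cells were exposed to test compound for 48 hours across five concentrations. TGI denotes the concentration required for complete inhibition of growth.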

How the values were obtained:
Experiment in all cases: DTP human tumour cell line panel, 48 h
[1] = test system: HT29 colon
[2] = test system: T-47D breast
[3] = test system: MCF7 breast
[4] = test system: HOP-62 NSCLC
[5] = test system: RXF 393 renal
[6] = test system: SK-OV-3 ovarian
[7] = test system: DU-145 prostate
[8] = test system: HCT-116 colon
[9] = test system: SW-620 colon
[10] = test system: CAKI-1 renal
[11] = test system: M14 melanoma
[12] = test system: A549 NSCLC
[13] = test system: U251 CNS
[14] = test system: HL-60(TB) leukemia
[15] = test system: NCI-H522 lung

Compound | TGI [1] [µM] | TGI [2] [µM] | TGI [3] [µM] | TGI [4] [µM] | TGI [5] [µM] | TGI [6] [µM] | TGI [7] [µM] | TGI [8] [µM] | TGI [9] [µM] | TGI [10] [µM] | TGI [11] [µM] | TGI [12] [µM] | TGI [13] [µM] | TGI [14] [µM] | TGI [15] [µM]
Clc1ccc(-c2nc3ccc(C45CC6CC(CC(C6)C4)C5)cc3[nH]2)cc1 | > 100 | > 100 | > 100 | > 77 | > 100 | > 100 | > 100 | > 100 | > 100 | > 100 | > 100 | > 100 | > 100 | > 100 | > 100
C/C1=C\CC/C(C)=C/C=C(/C(C)C)CC/C(C(=O)O)=C/CC1 | > 100 | 75.6 | > 100 | > 100 | > 100 | 98.2 | > 100 | > 100 | > 100 | > 100 | > 100 | > 100 | > 100 | > 100 | > 100
CCCCCCCCCC1CC(=O)NCC(=O)NC(C(C)C)C(=O)NC(CC(C)C)C(=O)NC(C)C(=O)NC(C(C)C)C(=O)O1 (centres undefined) | 21.5 | > 100 | > 100 | 55 | > 94.9 | 39.2 | > 74.9 | > 66.3 | > 33.6 | > 100 | > 100 | 40.9 | 29.7 | > 100 | 35.2
CN(C)c1ccc(N=Nc2cccc3ncccc23)cc1 | > 100 | > 100 | > 100 | > 100 | > 100 | > 100 | > 100 | > 100 | > 100 | > 100 | > 100 | > 100 | > 100 | 35.9 | > 73.8
C1=NCCNCCN=Cc2ccccc2OCc2cccc(n2)COc2ccccc21 | 47.3 | > 100 | > 56.9 | 54.8 | > 100 | > 100 | > 100 | > 100 | > 75.9 | > 95.6 | > 46.6 | > 100 | > 39.7 | 6.84 | > 66.8
O=C(OC(/C=C/c1ccccc1)P1(=O)N(Cc2ccccc2)[C@@H]2CCCC[C@H]2N1Cc1ccccc1)c1ccccc1 (some centres undefined) | > 100 | > 100 | > 100 | > 100 | > 100 | > 100 | > 100 | > 100 | > 100 | > 100 | > 100 | > 100 | > 100 | 7.43 | > 30.6
Cc1ccc(S(=O)(=O)NC2=NS(=O)(=O)c3cc(C)c(Cl)cc3S2)cc1 | > 100 | > 100 | > 100 | > 100 | > 100 | > 100 | > 100 | > 100 | > 100 | > 100 | > 100 | > 100 | > 100 | > 100 | > 100
[O-]c1c[n+](CC[n+]2cc([O-])on2)no1 | > 100 | > 100 | > 100 | > 100 | > 100 | > 100 | > 100 | > 100 | > 100 | > 100 | > 100 | > 100 | > 100 | > 100 | > 100
CCSC(=O)/C=C1\CN(C(=O)OC(C)(C)C)C1C(=O)OC(C)(C)C (centres undefined) | > 35.4 | 13.4 | 16.8 | 28.9 | 3.76 | 28.2 | 16.3 | 3 | 4.1 | 13.3 | 3.98 | 26.4 | 19.2 | 4.42 | 5.79
COC(=O)CCC(C)C1CCC2C3CCC4CC5CCC4(C)C3(O5)C(Br)C(Br)C12C (centres undefined) | > 100 | > 100 | > 100 | > 100 | > 100 | > 100 | > 100 | > 100 | > 100 | > 100 | > 100 | > 100 | > 100 | > 100 | > 100
CO/N=C(/C(=O)OC)c1ccccc1COc1cccc(C(F)(F)F)c1 | > 100 | 64.7 | 85.1 | > 100 | 98 | > 100 | > 100 | > 100 | > 100 | 56.1 | > 100 | > 100 | > 100 | 49 | 70.2
O/N=C1\CCc2cc3c(cc21)CCC3 | > 100 | > 100 | > 100 | > 100 | > 100 | > 100 | > 100 | > 100 | > 100 | > 100 | > 100 | > 100 | > 100 | > 100 | > 100
COc1ccc2c(c1)CCCN1Cc3ccccc3CC21 (centres undefined) | > 100 | > 100 | > 100 | > 100 | > 100 | > 100 | > 100 | > 100 | > 100 | > 100 | > 100 | > 100 | > 100 | > 100 | > 100
CC(C)(C)[Si](C)(C)OCC#C[C@@]1(O)CCCCC1CC(Sc1ccccc1)Sc1ccccc1 (some centres undefined) | 27 | 25.5 | 24.7 | 31.4 | 27.1 | 34.4 | 29.8 | 24 | 31.7 | 23.2 | 35.5 | 28 | 26.1 | 41.9 | 26.8
COc1cc(/C=C2\CC3C4CC[C@H]5C[C@@H](O)CC[C@]5(C)C4CC[C@]3(C)C2=O)cc(OC)c1OC (some centres undefined) | > 100 | 34.8 | 28.6 | 49.2 | > 100 | 52.9 | > 100 | 43.6 | > 100 | 44.9 | 61 | > 100 | 41.5 | 43.2 | 43.3
COC(=O)/C(=C\c1cn(C(C)=O)c2ccccc12)P(=O)(OC)OC | 29.7 | 33.1 | 26.4 | 28.8 | 32.8 | 39.2 | 26.2 | 28 | 40.7 | 27 | 28.5 | 35.8 | 29.5 | > 100 | 23.2

Compound | TGI [1] [µM] | TGI [2] [µM] | TGI [3] [µM] | TGI [4] [µM] | TGI [5] [µM] | TGI [6] [µM] | TGI [7] [µM] | TGI [8] [µM] | TGI [9] [µM] | TGI [10] [µM] | TGI [11] [µM] | TGI [12] [µM] | TGI [13] [µM] | TGI [14] [µM] | TGI [15] [µM]
CN(C)/C=C/c1nnnn1-c1ccc(I)cc1 | 59.2 | 44 | 65 | > 100 | 59.6 | 53.3 | 74.5 | 23.5 | 50.6 | 50.6 | 40.6 | > 100 | 34.9 | 25.7 | 68.8
Cc1ccc(CCCCCOc2ccc(C3=NCCO3)cc2)s1 | > 100 | > 100 | > 100 | > 100 | > 100 | > 100 | > 100 | > 100 | > 100 | > 100 | > 100 | > 100 | > 100 | > 100 | > 100
N/C(COc1ccc(Cl)cc1)=N\NC(=O)c1ccncc1 | > 100 | > 100 | > 100 | > 100 | > 100 | > 100 | > 100 | > 100 | > 100 | > 100 | > 100 | > 100 | > 100 | > 100 | > 100
CCOC(=O)C(=CNC(=S)Nc1c(CC)cccc1CC)C(=O)OCC | > 100 | > 100 | > 100 | > 100 | > 100 | > 100 | > 100 | > 100 | > 100 | > 100 | > 100 | > 100 | > 100 | > 100 | > 100
CCOC(=O)C1=NN(c2ccccc2)C2=CC(C)=NN(C)C(=S)N21 | > 100 | > 100 | > 100 | – | > 100 | > 100 | > 100 | > 100 | > 100 | > 100 | > 100 | > 100 | > 100 | > 100 | > 100
Cc1cc(-c2nc3cc(O)ccc3s2)ccc1N | 50.7 | 72.3 | > 100 | > 100 | > 100 | 77.1 | > 100 | 42.7 | > 100 | > 100 | 52.4 | > 100 | > 100 | > 100 | > 100
O=[N+]([O-])c1ccc(NC(=S)Nc2ccccn2)cc1 | > 100 | > 100 | > 100 | 44.8 | 17.8 | > 100 | 35.5 | > 100 | > 100 | 18.9 | > 100 | > 100 | > 100 | > 73.7 | > 100
O=C(CC(C(=O)c1cccs1)c1ccsc1)c1ccco1 (centres undefined) | 29.7 | 80.3 | 42.3 | > 100 | 49.7 | > 100 | > 100 | 56.5 | > 100 | 77.3 | 43.5 | 42.9 | 49.6 | 41.3 | 54.1
CC1CC(C)(O)CC(C(O)CC2CC(=O)NC(=O)C2)C1=O (centres undefined) | 1.61 | 3.18 | 0.686 | 0.449 | 1.05 | 2.45 | 1.85 | 0.704 | 1.53 | 0.0916 | 0.551 | 7.19 | 7.9 | 1.1 | < 0.0476
COC(=O)/C=C(/C(=O)OC)c1c(C)cc2c(C)cc(C)cc(C)c1-2 | 28.3 | > 100 | 36.6 | 37.9 | 49.2 | 99.5 | > 91.8 | 18.5 | > 100 | > 100 | 35.1 | > 84.5 | 25.5 | > 100 | 28.4
O=Cc1ccc(-c2cccc([N+](=O)[O-])c2)s1 | > 100 | > 100 | > 100 | > 100 | > 100 | > 100 | > 100 | > 100 | > 100 | > 100 | > 100 | > 100 | > 100 | > 100 | > 100
COC(=O)C1(C)CCCC2(C)C3CCC4CC3(C=C4CO)CCC12 (centres undefined) | 30.9 | > 100 | 72.7 | > 100 | > 100 | > 100 | > 100 | > 100 | > 100 | > 100 | > 100 | > 100 | > 100 | 43.9 | > 100
COc1cc(-c2oc(C=Nc3ccccc3)c([N+](=O)[O-])c2-c2ccc(O)c(OC)c2)ccc1O | > 55.9 | > 100 | > 100 | > 100 | 51.1 | > 64.7 | 53.3 | > 68.5 | > 85.3 | 47.2 | > 100 | > 87.2 | 66.1 | 4.28 | 30.2
CC(C)c1nc2c(Cl)c3ncccc3cc2[nH]c1=O | > 100 | > 100 | > 100 | > 100 | > 100 | > 100 | > 100 | > 100 | > 100 | > 100 | > 100 | > 100 | > 100 | > 100 | > 100
COC(=O)c1c(O)ccc2c1c1c(n2-c2ccc(OC)cc2)C(=O)c2ccccc2C1=O | 15.2 | 66.2 | 72.4 | 34.5 | 25.7 | 39.2 | 48.3 | 30.6 | > 100 | 66 | > 100 | 32.2 | 28.4 | > 100 | 56.3
